target: Protease (Human immunodeficiency virus 1) (UniProt Q9YQ12); assay: Inhibition of HIV1 recombinant protease expressed in Escherichia coli DH5alpha at 17.9 ug/mL after 2 hrs by HPLC assay
Sequence (Q9YQ12 as listed by the source): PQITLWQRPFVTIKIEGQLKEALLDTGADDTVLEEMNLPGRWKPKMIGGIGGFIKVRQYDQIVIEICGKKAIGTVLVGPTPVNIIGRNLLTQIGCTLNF

| inhibition | Compound |
| --- | --- |
| 49% | C[C@@H]1CC[C@]2(C(=O)O)CC[C@]3(C)C(=CC[C@@H]4[C@@]5(C)C[C@@H](O)[C@H](O)C(C)(C)[C@@H]5CC[C@]43C)[C@@H]2[C@]1(C)O |
| 85% | C[C@H]1[C@H](C)CC[C@]2(C(=O)O)CC[C@]3(C)C(=CC[C@@H]4[C@@]5(C)CC[C@H](O)C(C)(C)[C@@H]5CC[C@]43C)[C@H]12 |
| 72% | C[C@@H]1CC[C@]2(C(=O)O)CC[C@]3(C)C(=CC[C@@H]4[C@@]5(C)C[C@@H](O)C(=O)C(C)(C)[C@@H]5CC[C@]43C)[C@@H]2[C@]1(C)O |
| 42% | C[C@@H]1CC[C@]2(C(=O)O)CC[C@]3(C)C(=CC[C@@H]4[C@@]5(C)CC[C@@H](O)C(C)(C)[C@@H]5CC[C@]43C)[C@@H]2[C@]1(C)O |
| 100% | CC1(C)CC[C@]2(C(=O)O)CC[C@]3(C)C(=CC[C@@H]4[C@@]5(C)C[C@@H](O)[C@H](O)C(C)(C)[C@@H]5CC[C@]43C)[C@@H]2C1 |
| 0% | C[C@@H]1CC[C@]2(C(=O)O)CC[C@]3(C)C(=CC[C@@H]4[C@@]5(C)C[C@@H](O)[C@@H](O)C(C)(C)[C@@H]5CC[C@]43C)[C@@H]2[C@]1(C)O |
